Data published in US4912215A, “Q-1047 Substances” (Yamanouchi Pharmaceutical Co., Ltd., priority 1989, dated 1990).

Tests used:
[1] = Superoxide anion scavenging activity (method of McCord and Fridovich, xanthine/xanthine oxidase, ferricytochrome C); type: biochemical; conditions: for concentration dependency of superoxide anion scavenging activity: FIG. 30, FIG. 31, FIG. 32; for SOD-like activity of the detected/isolated substance: TLC-detected substance in preparation examples, test not detailed; for IC50 / superoxide anion scavenging activity (in words): pH 7.8, 25° C.; for IC50: xanthine/xanthine oxidase, ferricytochrome C, read-out: concentration of the compound which showed one unit of SOD activity (50% reduction of increase in absorbance at 550 nm); for superoxide anion scavenging activity (in words): same reaction system
Experimental: The compounds according to the invention were tested for superoxide anion scavenging activity by the method of McCord and Fridovich [J. Biol. Chem., 244 (22), 6049-6055 1969) . Thus, xanthine oxidase was added to 5 ×10^-2 M potassium phosphate buffer (pH 7.8) containing 1 ×10^-4 M EDTA, 1×10^-5 M ferricytochrome C and 5×10^-5 M xanthine to give a reaction system in which the rate of increase in absorbance at 550 nm as determined at 25° C. amounted to 0.025 per minute.

Solubility = type: physicochemical; conditions: for Solubility in dioxane, toluene, benzene, chloroform: toluene (printed tolueno)
[2] = Basic, neutral or acidic nature; type: physicochemical
[3] = system: Puromycin aminonucleoside (PAN) nephrosis rats; experiment: Effect on puromycin nephritis (PAN nephrosis rats); type: in vivo, Male Sprague-Dawley rats; conditions: 10 mg/kg i.p. daily
Experimental: Male Sprague-Dawley rats (weighing 180-200 g) were used. Puromycin aminonucleoside (PAN) nephrosis rats were prepared by single intraperitoneal administration of 50 mg/kg of PAN. Throughout the experiment, the rats were fed in metabolic cages and received a solid diet for rats and tap water ad libitum. Urine samples were collected at timed intervals for 24 hours and assayed for protein content. The test drug, suspended in a 0.5% methylcellulose solution, was intraperitoneally administered daily. After the administration period, kidneys were excised, and thin sections were prepared therefrom in the conventional manner and examined microscopically.

[4] = Antioxidant activity (decolorization of DPPH radical); type: biochemical; conditions: for reduction of absorbance due to DPPH at 517 nm: 0.1 mM DPPH in ethanol, 30 minutes; for antioxidant activity of the detected/isolated substance: TLC-detected or isolated substance in preparation examples, test not detailed
Experimental: Generally, substances called antioxidants can decolorize 1,1-diphenyl-2-picrylhydrazyl (DPPH), which is a stable radical.
Thus, DPPH was dissolved in ethanol to a concentration of 0.1 mM, the test compound was admixed with the solution and, 30 minutes later, the absorbance was determined at 517 nm.

Acute toxicity in mice = conditions: mouse, in vivo, ip

SMILES	concentration dependency of superoxide anion scavenging activity [1]	SOD-like activity of the detected/isolated substance [1]	IC50 [1]	Solubility in dioxane, chloroform, ethyl acetate, acetonitrile (Solubility)	Solubility in toluene, benzene, ethanol, methanol (Solubility)	Solubility in water, hexane (Solubility)	Basic, neutral or acidic [2]	urinary protein level ([3]; PAN 50 mg/kg i.p. single, compared with PAN alone on 7th day)	kidney tissue examination (glomerular changes or abnormalities) ([3]; compared with PAN alone)	superoxide anion scavenging activity (in words) [1]	Solubility in dioxane, toluene, benzene, chloroform (Solubility)	Solubility in ethyl acetate, acetonitrile, acetone, ethanol, methanol (Solubility)	reduction of absorbance due to DPPH at 517 nm [4]	antioxidant activity of the detected/isolated substance [4]	LD50 (Acute toxicity in mice)
CC1=CC(C)C(OC2CCC(O)C(C)O2)C2=CC(=O)C=C(NC(=O)C(C)C(=O)C(C)C1)C2=O (stereo not drawn) [Q-1047-A]	dependent on the concentration	SOD-like activity	5.6 µM	Soluble	sparingly	insoluble	Neutral								
CC1=CC(C)C(OC2CCC(O)C(C)O2)C2=CC(=O)C=C(NC(=O)C(C)C(=O)C(C)C1)C2=O (stereo not drawn) [Q-1047-B]	dependent on the concentration	SOD-like activity	35 µM	Soluble	sparingly	insoluble	Neutral								
CC1=CC(C)C(O)C2=CC(=O)C=C(NC(=O)C(C)C(=O)C(C)C1)C2=O (stereo not drawn) [Q-1047H-A-A]	concentration-dependent	SOD-like activity	25 µM	Soluble	sparingly	insoluble	Neutral	almost no increase in urinary protein was observed	such changes or abnormalities were lesser in extent and lower in incidence	have superoxide anion scavenging activity					
CC1=CC(C)C(O)C2=CC(=O)C=C(NC(=O)C(C)C(=O)C(C)C1)C2=O (stereo not drawn) [Q-1047H-A-B]	concentration-dependent	SOD-like activity	22 µM	Soluble	sparingly	insoluble	Neutral			have superoxide anion scavenging activity					
CC1=CC(C)C(O)c2cc(O)cc(c2O)NC(=O)C(C)C(=O)C(C)C1 (stereo not drawn) [Q-1047H-R-A]						insoluble	Neutral				sparingly	Soluble	reduced the absorbance due to DPPH	antioxidant activity	
CC1=CC(C)C(OC2CCC(O)C(C)O2)c2cc(O)cc(c2O)NC(=O)C(C)C(=O)C(C)C1 (stereo not drawn) [Q-1047R-A]						insoluble	Neutral				sparingly	Soluble	reduced the absorbance due to DPPH	antioxidant activity	> 500 mg/kg
